# Residue numbers refer to the chain shown, from its start. Like-named read-outs stand apart in the source and are kept apart here.
# Key:
# [1] = target: T1, RET(KD: 658-1114 G810R) (Homo sapiens, UniProt P07949, G810R); assay: HiBiT-Degradation, RET G810R degradation assay (Nano-Glo HiBiT Lytic), 293T.165 cells; assay type: cell-based; settings: for Emax / DC50: 6.0 hours; for Emax: % remaining protein, read-out: 293T.165 RET(KD: 658-1114 G810R) 6.0 hours (Emax); for DC50: read-out: 293T.165 RET(KD: 658-1114 G810R) 6.0 hours (DC50)
# T1 construct: 658-1114; expressed in transfected cells; host or cells: 293T.165 (293T cells, generated in-house)
# T1 sequence (P07949 658-1114 G810R): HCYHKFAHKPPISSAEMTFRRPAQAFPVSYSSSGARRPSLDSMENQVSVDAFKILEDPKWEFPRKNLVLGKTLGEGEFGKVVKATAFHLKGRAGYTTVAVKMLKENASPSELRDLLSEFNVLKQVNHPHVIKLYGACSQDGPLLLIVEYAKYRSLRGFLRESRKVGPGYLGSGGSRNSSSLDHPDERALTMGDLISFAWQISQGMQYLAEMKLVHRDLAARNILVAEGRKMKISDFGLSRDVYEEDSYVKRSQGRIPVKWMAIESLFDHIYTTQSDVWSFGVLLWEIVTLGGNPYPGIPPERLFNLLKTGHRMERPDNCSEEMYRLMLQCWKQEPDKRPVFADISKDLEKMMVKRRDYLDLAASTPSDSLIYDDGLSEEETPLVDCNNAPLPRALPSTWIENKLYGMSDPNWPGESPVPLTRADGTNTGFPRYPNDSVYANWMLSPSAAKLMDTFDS
# In short: (§1)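 6 h treatment, 293T.144 (WT) / 293T.165 (G810R) cells ectopically expressing HiBiT-fused RET KD; 11-pt half-log dilution, top 10 μM, n=2. Nano-Glo HiBiT lytic detection, luminescence. Output: DC50, Emax (% protein remaining).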
# [2] = target: T2, RET (658-1114) (Homo sapiens, UniProt P07949); assay: HiBiT-Degradation, RET wild-type degradation assay (Nano-Glo HiBiT Lytic), 293T.144 cells; assay type: cell-based; settings: for DC50 / Emax: 6.0 hours; for DC50: read-out: 293T.144 RET (658-1114) 6.0 hours (DC50); for Emax: read-out: 293T.144 RET (658-1114) 6.0 hours (Emax)
# T2 construct: 658-1114; expressed in transfected cells; host or cells: 293T.144 (293T cells, generated in-house)
# T2 sequence (P07949 658-1114): T1 sequence (P07949 658-1114 G810R) with R153G
# In short: as §1
# [3] = half-maximal degradation concentration
Compound,Emax [1] [%],"DC50 [1, 3] [nM]",293T.165 RET(KD: 658-1114 G810R) 6.0 hours (Emax) ([1]; HiBiT-Degradation),293T.165 RET(KD: 658-1114 G810R) 6.0 hours (IP) [nM] ([1]; HiBiT-Degradation),DC50 ([1]; HiBiT-Degradation) [nM],293T.144 RET (658-1114) 6.0 hours (IP) [nM] ([2]; HiBiT-Degradation),DC50 ([2]; HiBiT-Degradation) [nM],Emax ([2]; HiBiT-Degradation) [%],293T.165 RET(KD: 658-1114 G810R) 6.0 hours (IP) [nM] [1],293T.144 RET (658-1114) 6.0 hours (IP) [nM] [2],Emax ([2]; % remaining protein) [%],"DC50 [2, 3] [nM]"
"CC(C)NC(=O)C1(C)CCN(c2ccc(-c3cc(-c4ccc(N5CCN(C(=O)CN6CCC(c7ccc(NC8CCC(=O)NC8=O)cc7)CC6)CC5)cc4)cn4ncc(C#N)c34)cn2)CC1 (stereo not shown) [Compound 35, 1-(5-(3-Cyano-6-(4-(4-(2-(4-(4-((2,6-dioxopiperidin-3-yl)amino)phenyl)piperidin-1-yl)acetyl)piperazin-1-yl)phenyl)pyrazolo[1,5-a]pyridin-4-yl)pyridin-2-yl)-N-isopropyl-4-methylpiperidine-4-carboxamide]",< 30,< 50,++++ (< 30% = ++++),++++ (< 50 nM = ++++),< 50,++++ (< 50 nM = ++++),< 50,< 30,,,,
"CCC1(C(=O)NC(C)C)CCN(c2ccc(-c3cc(-c4ccc(N5CCC(O)(CCN6CCC(c7ccc(NC8CCC(=O)NC8=O)cc7F)CC6)CC5)cc4)cn4ncc(C#N)c34)cn2)CC1 (stereo not shown) [Compound 39, 1-(5-(3-Cyano-6-(4-(4-(2-(4-(4-((2,6-dioxopiperidin-3-yl)amino)-2-fluorophenyl)piperidin-1-yl)ethyl)-4-hydroxypiperidin-1-yl)phenyl)pyrazolo[1,5-a]pyridin-4-yl)pyridin-2-yl)-4-ethyl-N-isopropylpiperidine-4-carboxamide]",< 30,< 50,++++ (< 30% = ++++),++++ (< 50 nM = ++++),< 50,++++ (< 50 nM = ++++),< 50,< 30,,,,
"N#Cc1cnn2cc(-c3cnn([C@H]4CC[C@H](N5CCN(c6c(F)cc(N[C@@H]7CCC(=O)NC7=O)cc6F)CC5)CC4)c3)nc(-c3ccc(N4CCC5(CC4)OCc4cccnc45)nc3)c12 (racemic) [Compound 218, 6-[1-[4-[4-[2,6-difluoro-4-[[rac-(3R)-2,6-dioxo-3-piperidyl]amino]phenyl]piperazin-1-yl]cyclohexyl]pyrazol-4-yl]-4-(6-spiro[5H-furo[3,4-b]pyridine-7,4′-piperidine]-1′-yl-3-pyridyl)pyrazolo[1,5-a]pyrazine-3-carbonitrile]",< 30,< 50,,,,,,,++++ (<50 nM = ++++),++++ (<50 nM = ++++),< 30,< 50
"COc1ccc(CN2C3CC2CN(c2ccc(-c4nc(-c5cnn([C@H]6CC[C@@H](N7CCC(c8cc9c(cc8F)c(N8CCC(=O)NC8=O)nn9C)C(F)(F)C7)CC6)c5)cn5ncc(C#N)c45)cn2)C3)cn1 (relative stereo) [Compound 200, 6-(1-((1s, 4s)-4-(4-(3-(2,4-Dioxotetrahydropyrimidin-1(2H)-yl)-5-fluoro-1-methyl-1H-indazol-6-yl)-3,3-difluoropiperidin-1-yl)cyclohexyl)-1H-pyrazol-4-yl)-4-(6-(6-((6-methoxypyridin-3-yl)methyl)-3,6-diazabicyclo[3.1.1]heptan-3-yl)pyridin-3-yl)pyrazolo[1,5-a]pyrazine-3-carbonitrile]",< 50,< 50,,,,,,,++++ (<50 nM = ++++),++++ (<50 nM = ++++),< 30,< 50
"CCC1(C(=O)NC2CCC2)CCN(c2ccc(-c3nc(-c4cnn(C5CCN([C@H]6CCN(c7ccc(N[C@H]8CCC(=O)NC8=O)cc7F)CC6(F)F)CC5)c4)cn4ncc(C#N)c34)cn2)CC1 (single isomer, unassigned) [Compound 191]",< 30,< 100,,,,,,,+++ (<100 nM = +++),++++ (<50 nM = ++++),< 30,< 50

# — patent US12661410B2, “Compounds for targeted degradation of RET” (C4 Therapeutics, Inc., priority 2020, dated 2026)
